Assays:
Type in all cases: in vivo
[1] = system: Abutilon theophrasti; experiment: Pre-emergence herbicidal action, ABUTH; details: dosage 320 g/ha, scored visually after 3 weeks vs untreated controls
Procedure, shortened: (§1)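 Percent herbicidal activity rated by eye 3 weeks after pre-emergence soil-surface application, compared with untreated pots. Seeds sat under sandy loam; sprays carried 0.2% wetting agent.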

[2] = system: Alopecurus myosuroides; experiment: Pre-emergence herbicidal action, ALOMY; details: dosage 320 g/ha, scored visually after 3 weeks vs untreated controls
Procedure, shortened: as §1

[3] = system: Amaranthus retroflexus; experiment: Pre-emergence herbicidal action, AMARE; details: dosage 320 g/ha, scored visually after 3 weeks vs untreated controls
Procedure, shortened: as §1

[4] = system: Avena fatua; experiment: Pre-emergence herbicidal action, AVEFA; details: dosage 320 g/ha, scored visually after 3 weeks vs untreated controls
Procedure, shortened: as §1

[5] = system: Cyperus serotinus; experiment: Pre-emergence herbicidal action, CYPES; details: dosage 320 g/ha, scored visually after 3 weeks vs untreated controls
Procedure, shortened: as §1

[6] = system: Matricaria inodora; experiment: Pre-emergence herbicidal action, MATIN; details: dosage 320 g/ha, scored visually after 3 weeks vs untreated controls
Procedure, shortened: as §1

[7] = system: Setaria viridis; experiment: Pre-emergence herbicidal action, SETVI; details: dosage 320 g/ha, scored visually after 3 weeks vs untreated controls
Procedure, shortened: as §1

[8] = system: Stellaria media; experiment: Pre-emergence herbicidal action, STEME; details: dosage 320 g/ha, scored visually after 3 weeks vs untreated controls
Procedure, shortened: as §1

[9] = system: Viola tricolor; experiment: Pre-emergence herbicidal action, VIOTR; details: dosage 320 g/ha, scored visually after 3 weeks vs untreated controls
Procedure, shortened: as §1

[10] = system: Abutilon theophrasti; experiment: Post-emergence herbicidal action, ABUTH; details: 80 g/ha, Table D
Procedure, shortened: (§2)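 Greenhouse-grown plants were sprayed at the one-leaf stage, 2–3 weeks after sowing. Damage was scored visually after about 3 weeks against untreated controls, as % action (100% = dead, 0% = like control).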

[11] = system: Alopecurus myosuroides; experiment: Post-emergence herbicidal action, ALOMY; details: 80 g/ha, Table C
Procedure, shortened: as §2

[12] = system: Amaranthus retroflexus; experiment: Post-emergence herbicidal action, AMARE; details: 80 g/ha, Table D
Procedure, shortened: as §2

[13] = system: Avena fatua; experiment: Post-emergence herbicidal action, AVEFA; details: 80 g/ha, Table C
Procedure, shortened: as §2

[14] = system: Pharbitis purpureum; experiment: Post-emergence herbicidal action, PHBPU; details: 80 g/ha, Table D
Procedure, shortened: as §2

[15] = system: Setaria viridis; experiment: Post-emergence herbicidal action, SETVI; details: 80 g/ha, Table C
Procedure, shortened: as §2

[16] = system: Stellaria media; experiment: Post-emergence herbicidal action, STEME; details: 80 g/ha, Table D
Procedure, shortened: as §2

[17] = system: Viola tricolor; experiment: Post-emergence herbicidal action, VIOTR; details: 80 g/ha, Table D
Procedure, shortened: as §2

[18] = system: ECHCG; experiment: Post-emergence herbicidal action, ECHCG; details: 80 g/ha, Table C
Procedure, shortened: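 Weed and crop plants grown in sandy loam in the greenhouse, treated at the one-leaf stage 2–3 weeks after sowing. Damage scored visually after about 3 weeks vs untreated controls (0% = control, 100% = dead).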

CC[S+]([O-])c1c(C(F)F)ccc(C(=O)Nc2nnnn2C)c1F (stereo not drawn) [Example 1-41]
herbicidal activity ABUTH [1]: 100%
herbicidal activity ALOMY [2]: 100%
herbicidal activity AMARE [3]: 100%
herbicidal activity AVEFA [4]: 100%
herbicidal activity CYPES [5]: 100%
herbicidal activity MATIN [6]: 100%
herbicidal activity SETVI [7]: 100%
Herbicidal activity STEME [8]: 100%
herbicidal activity VIOTR [9]: 100%
herbicidal activity ABUTH [10]: 100%
herbicidal activity ALOMY [11]: 90%
herbicidal activity AMARE [12]: 100%
herbicidal activity AVEFA [13]: 100%
Herbicidal activity PHBPU [14]: 90%
herbicidal activity SETVI [15]: 90%
Herbicidal activity STEME [16]: 100%
herbicidal activity VIOTR [17]: 100%
Herbicidal activity ECHCG [18]: 90%

CC[S+]([O-])c1c(C(F)F)ccc(C(=O)Nc2nnnn2C)c1Cl (stereo not drawn) [Example 1-53]
herbicidal activity ABUTH [1]: 100%
herbicidal activity ALOMY [2]: 100%
herbicidal activity AMARE [3]: 100%
herbicidal activity AVEFA [4]: 100%
herbicidal activity CYPES [5]: 100%
herbicidal activity MATIN [6]: 100%
herbicidal activity SETVI [7]: 100%
Herbicidal activity STEME [8]: 100%
herbicidal activity VIOTR [9]: 100%
herbicidal activity ABUTH [10]: 100%
herbicidal activity ALOMY [11]: 100%
herbicidal activity AMARE [12]: 100%
herbicidal activity AVEFA [13]: 100%
Herbicidal activity PHBPU [14]: 100%
herbicidal activity SETVI [15]: 100%
Herbicidal activity STEME [16]: 100%
herbicidal activity VIOTR [17]: 100%
Herbicidal activity ECHCG [18]: 90%

CCn1nnnc1NC(=O)c1ccc(C(F)F)c(SC)c1F [Example 2-37]
herbicidal activity ABUTH [1]: 100%
herbicidal activity ALOMY [2]: 90%
herbicidal activity AMARE [3]: 100%
herbicidal activity AVEFA [4]: 100%
herbicidal activity CYPES [5]: 80%
herbicidal activity MATIN [6]: 100%
herbicidal activity SETVI [7]: 100%
Herbicidal activity STEME [8]: 100%
herbicidal activity VIOTR [9]: 100%
herbicidal activity ABUTH [10]: 100%
herbicidal activity ALOMY [11]: 80%
herbicidal activity AMARE [12]: 100%
herbicidal activity AVEFA [13]: 90%
Herbicidal activity PHBPU [14]: 100%
herbicidal activity SETVI [15]: 100%
Herbicidal activity STEME [16]: 100%
herbicidal activity VIOTR [17]: 90%
Herbicidal activity ECHCG [18]: 100%

CCSc1c(C(F)F)ccc(C(=O)Nc2nnnn2C)c1C1CC1 [Example 1-28]
herbicidal activity ABUTH [1]: 100%
herbicidal activity ALOMY [2]: 100%
herbicidal activity AMARE [3]: 100%
herbicidal activity AVEFA [4]: 100%
herbicidal activity CYPES [5]: 100%
herbicidal activity MATIN [6]: 100%
herbicidal activity SETVI [7]: 100%
Herbicidal activity STEME [8]: 100%
herbicidal activity VIOTR [9]: 100%
herbicidal activity ABUTH [10]: 100%
herbicidal activity ALOMY [11]: 90%
herbicidal activity AMARE [12]: 100%
herbicidal activity AVEFA [13]: 100%
Herbicidal activity PHBPU [14]: 100%
herbicidal activity SETVI [15]: 100%
Herbicidal activity STEME [16]: 100%
herbicidal activity VIOTR [17]: 100%
Herbicidal activity ECHCG [18]: 100%

Cn1nnnc1NC(=O)c1ccc(C(F)F)c([S+](C)[O-])c1C1CC1 (stereo not drawn) [Example 1-26]
herbicidal activity ABUTH [1]: 100%
herbicidal activity ALOMY [2]: 100%
herbicidal activity AMARE [3]: 100%
herbicidal activity AVEFA [4]: 100%
herbicidal activity CYPES [5]: 100%
herbicidal activity MATIN [6]: 100%
herbicidal activity SETVI [7]: 100%
Herbicidal activity STEME [8]: 100%
herbicidal activity VIOTR [9]: 100%
herbicidal activity ABUTH [10]: 100%
herbicidal activity ALOMY [11]: 90%
herbicidal activity AMARE [12]: 100%
herbicidal activity AVEFA [13]: 100%
Herbicidal activity PHBPU [14]: 90%
herbicidal activity SETVI [15]: 100%
Herbicidal activity STEME [16]: 100%
herbicidal activity VIOTR [17]: 100%
Herbicidal activity ECHCG [18]: 100%

CCSc1c(C(F)F)ccc(C(=O)Nc2nnnn2C)c1C [Example 1-4]
herbicidal activity ABUTH [1]: 100%
herbicidal activity ALOMY [2]: 100%
herbicidal activity AMARE [3]: 100%
herbicidal activity AVEFA [4]: 100%
herbicidal activity CYPES [5]: 80%
herbicidal activity MATIN [6]: 100%
herbicidal activity SETVI [7]: 100%
Herbicidal activity STEME [8]: 100%
herbicidal activity VIOTR [9]: 100%
herbicidal activity ABUTH [10]: 100%
herbicidal activity ALOMY [11]: 90%
herbicidal activity AMARE [12]: 100%
herbicidal activity AVEFA [13]: 100%
Herbicidal activity PHBPU [14]: 100%
herbicidal activity SETVI [15]: 100%
Herbicidal activity STEME [16]: 100%
herbicidal activity VIOTR [17]: 100%
Herbicidal activity ECHCG [18]: 100%

Cn1nnnc1NC(=O)c1ccc(C(F)F)c([S+](C)[O-])c1Br (stereo not drawn) [Example 1-62]
herbicidal activity ABUTH [1]: 100%
herbicidal activity ALOMY [2]: 100%
herbicidal activity AMARE [3]: 100%
herbicidal activity AVEFA [4]: 100%
herbicidal activity CYPES [5]: 100%
herbicidal activity MATIN [6]: 100%
herbicidal activity SETVI [7]: 100%
Herbicidal activity STEME [8]: 100%
herbicidal activity VIOTR [9]: 100%
herbicidal activity ABUTH [10]: 100%
herbicidal activity ALOMY [11]: 100%
herbicidal activity AMARE [12]: 100%
herbicidal activity AVEFA [13]: 100%
Herbicidal activity PHBPU [14]: 100%
herbicidal activity SETVI [15]: 100%
Herbicidal activity STEME [16]: 100%
herbicidal activity VIOTR [17]: 100%
Herbicidal activity ECHCG [18]: 100%

CCc1c(C(=O)Nc2nnnn2C)ccc(C(F)F)c1[S+](C)[O-] (stereo not drawn) [Example 1-14]
herbicidal activity ABUTH [1]: 100%
herbicidal activity ALOMY [2]: 100%
herbicidal activity AMARE [3]: 100%
herbicidal activity AVEFA [4]: 100%
herbicidal activity CYPES [5]: 100%
herbicidal activity MATIN [6]: 100%
herbicidal activity SETVI [7]: 100%
Herbicidal activity STEME [8]: 100%
herbicidal activity VIOTR [9]: 100%
herbicidal activity ABUTH [10]: 100%
herbicidal activity ALOMY [11]: 90%
herbicidal activity AMARE [12]: 90%
herbicidal activity AVEFA [13]: 90%
Herbicidal activity PHBPU [14]: 90%
herbicidal activity SETVI [15]: 100%
Herbicidal activity STEME [16]: 100%
herbicidal activity VIOTR [17]: 90%
Herbicidal activity ECHCG [18]: 100%
